From US20260176320A1, “MODULATORS OF G-PROTEIN COUPLED RECEPTORS” (priority 2018, published 2026)
Where two headings read alike, the source gives them in different places. Square brackets hold non-standard residues; d marks the D form. Peptide text beside a SMILES is read from it. * marks the point of attachment. X1 = O=C(CSCC(=O)*)NCCN1C(=O)c2ccccc2C1=O; Aib = CC(C)(N)C(=O)O

Tests used:
Format in all cases: cell-based
GLP-1R [1] = target: T1, GLP-1R (Homo sapiens, UniProt P43220); experiment: HitHunter cAMP assay (GLP-1R); settings: cAMP; for Emax: read-out: (Emax) GLP-1R
Outline: (§1)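 Suspension cells (10,000/well) in HBSS with 10 mM HEPES, 625 μM IBMX, 0.2% BSA exposed to 22-point 2-fold agonist series in duplicate for 30 min at room temperature. cAMP measured by antibody immunocompetition with overnight development, luminescence read-out.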

GIP-R = target: T2, GIP-R (Homo sapiens, UniProt P48546); experiment: HitHunter cAMP assay (GIP-R); settings: cAMP; for Emax: read-out: (Emax) GIP-R
T2 sequence (P48546 22-466): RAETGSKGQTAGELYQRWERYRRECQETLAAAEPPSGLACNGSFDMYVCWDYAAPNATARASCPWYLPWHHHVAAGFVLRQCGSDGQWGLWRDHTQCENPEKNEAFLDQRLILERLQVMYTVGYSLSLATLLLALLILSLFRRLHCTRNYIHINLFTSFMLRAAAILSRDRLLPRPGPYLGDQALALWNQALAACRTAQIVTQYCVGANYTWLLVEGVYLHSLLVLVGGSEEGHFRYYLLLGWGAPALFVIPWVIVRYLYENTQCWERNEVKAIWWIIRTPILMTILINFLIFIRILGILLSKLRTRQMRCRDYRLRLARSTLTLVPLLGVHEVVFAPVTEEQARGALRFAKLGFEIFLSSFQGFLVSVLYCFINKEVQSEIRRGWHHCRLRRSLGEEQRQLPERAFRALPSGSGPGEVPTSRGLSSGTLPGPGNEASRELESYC
Outline: as §1

GLP-1R [2] = target: T1, GLP-1R; experiment: PathHunter β-arrestin assay
Outline: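 Cells (5,000/well) plated overnight, then exposed to a 22-point 2-fold agonist dilution series in medium with 0.2% BSA for 90 min at 37 °C, 5% CO2. PathHunter detection reagent added; after 3 h at room temperature in the dark, luminescence read.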

[3] = Table 3, read-out: EC50 GLP-1R/nM
[4] = Table 3A, read-out: EC50 GLP-1R/nM
[5] = Table 3, read-out: EC50 GIP-R/nM
[6] = Table 3A, read-out: EC50 GIP-R/nM
[7] = PathHunter β-arrestin assay, read-out: β-arrestin activity EC50

T1 sequence (P43220 24-463): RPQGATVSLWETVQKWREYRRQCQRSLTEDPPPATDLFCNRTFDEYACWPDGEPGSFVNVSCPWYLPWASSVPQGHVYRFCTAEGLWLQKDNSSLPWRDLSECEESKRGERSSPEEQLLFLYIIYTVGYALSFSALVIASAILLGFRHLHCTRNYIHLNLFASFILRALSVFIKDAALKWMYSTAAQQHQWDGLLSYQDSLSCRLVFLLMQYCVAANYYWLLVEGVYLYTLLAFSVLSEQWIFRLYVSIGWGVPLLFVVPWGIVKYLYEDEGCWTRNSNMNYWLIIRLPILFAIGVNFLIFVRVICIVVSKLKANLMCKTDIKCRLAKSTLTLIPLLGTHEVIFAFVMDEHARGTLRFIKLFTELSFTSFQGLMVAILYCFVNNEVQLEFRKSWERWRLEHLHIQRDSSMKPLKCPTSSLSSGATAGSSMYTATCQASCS

CC[C@H](C)[C@H](NC(=O)[C@H](CO)NC(=O)[C@H](Cc1ccc(O)cc1)NC(=O)[C@H](CC(=O)O)NC(=O)[C@H](CO)NC(=O)[C@@H](NC(=O)[C@H](Cc1ccccc1)NC(=O)[C@@H](NC(=O)CNC(=O)[C@H](CCC(=O)O)NC(=O)CSCC(=O)NCCN1C(=O)c2ccccc2C1=O)[C@@H](C)O)[C@@H](C)O)C(=O)N[C@@H](Cc1ccc(O)cc1)C(=O)N[C@@H](CC(C)C)C(=O)N[C@@H](CC(=O)O)C(=O)N[C@@H](CCCNC(=N)N)C(=O)N[C@@H](CCC(N)=O)C(=O)N[C@@H](C)C(=O)N[C@@H](C)C(=O)NC(C)(C)C(=O)N[C@@H](CCC(=O)O)C(=O)N[C@@H](Cc1ccccc1)C(=O)N[C@H](C(=O)N[C@@H](CC(N)=O)C(=O)N[C@@H](Cc1c[nH]c2ccccc12)C(=O)N[C@@H](CC(C)C)C(=O)N[C@@H](CC(C)C)C(=O)N[C@@H](C)C(=O)NCC(=O)NCC(=O)N1CCC[C@H]1C(=O)N[C@@H](CO)C(=O)N[C@@H](CO)C(=O)NCC(=O)N[C@@H](C)C(=O)N1CCC[C@H]1C(=O)N1CCC[C@H]1C(=O)N1CCC[C@H]1C(=O)N[C@@H](CO)C(N)=O)C(C)C [Compound 190] (X1-EGTFTSDYSIYLDRQAA[Aib]EFVNWLLAGGPSSGAPPPS-NH2)
EC50 (GLP-1R [1]; EC50 GLP-1R/nM, Table 3): 1 to 10 nM
EC50 (GLP-1R [1]; EC50 GLP-1R/nM, Table 3A): 1 to 10 nM
Emax (GLP-1R [1]; Table 3): 97 to 119%
Emax (GLP-1R [1]; Table 3A): 97 to 119%
Emax (GIP-R; Table 3): 88 to 119%
Emax (GIP-R; Table 3A): 88 to 119%
EC50 (GIP-R; read-out: EC50 GIP-R/nM, Table 3): 0.1 to 10 nM
EC50 (GIP-R; read-out: EC50 GIP-R/nM, Table 3A): 0.1 to 10 nM
EC50 (GLP-1R [2]): > 1000 nM

CCCCCCCCCCCCCCCC(=O)N[C@@H](CCC(=O)NCCCC[C@H](NC(=O)[C@H](CO)NC(=O)[C@@H]1CCCN1C(=O)[C@@H]1CCCN1C(=O)[C@@H]1CCCN1C(=O)[C@H](C)NC(=O)CNC(=O)[C@H](CO)NC(=O)[C@H](CO)NC(=O)[C@@H]1CCCN1C(=O)CNC(=O)CNC(=O)[C@H](C)NC(=O)[C@H](CC(C)C)NC(=O)[C@H](CC(C)C)NC(=O)[C@H](Cc1c[nH]c2ccccc12)NC(=O)[C@H](CC(N)=O)NC(=O)[C@@H](NC(=O)[C@H](Cc1ccccc1)NC(=O)[C@H](CCC(=O)O)NC(=O)C(C)(C)NC(=O)[C@H](C)NC(=O)[C@H](C)NC(=O)[C@H](CCC(N)=O)NC(=O)[C@H](CCCCN)NC(=O)[C@H](CC(=O)O)NC(=O)[C@H](CC(C)C)NC(=O)[C@H](Cc1ccc(O)cc1)NC(=O)[C@@H](NC(=O)[C@H](CO)NC(=O)[C@H](Cc1ccc(O)cc1)NC(=O)[C@H](CC(=O)O)NC(=O)[C@H](CO)NC(=O)[C@@H](NC(=O)[C@H](Cc1ccccc1)NC(=O)[C@@H](NC(=O)CNC(=O)[C@H](CCC(=O)O)NC(=O)CSCC(=O)NCCN1CCCN(C)C1=O)[C@@H](C)O)[C@@H](C)O)[C@@H](C)CC)C(C)C)C(N)=O)C(=O)O [Compound 23]
EC50 (GLP-1R [1]; EC50 GLP-1R/nM, Table 3): 1 to 10 nM
EC50 (GLP-1R [1]; EC50 GLP-1R/nM, Table 3A): 1 to 10 nM
Emax (GLP-1R [1]; Table 3): 83%
Emax (GLP-1R [1]; Table 3A): 83%
EC50 (GIP-R; EC50 GIP-R/nM, Table 3): 1 to 10 nM
EC50 (GIP-R; EC50 GIP-R/nM, Table 3A): 1 to 10 nM
Emax (GIP-R; Table 3): 37%
Emax (GIP-R; Table 3A): 37%
EC50 (GLP-1R [2]): > 1000 nM

CC[C@H](C)[C@H](NC(=O)[C@H](CO)NC(=O)[C@H](Cc1ccc(O)cc1)NC(=O)[C@H](CC(=O)O)NC(=O)[C@H](CO)NC(=O)[C@@H](NC(=O)[C@H](Cc1ccccc1)NC(=O)[C@@H](NC(=O)CNC(=O)[C@H](CCC(=O)O)NC(=O)C(C)(C)C(=O)NCCCN1C(=O)c2ccccc2C1=O)[C@@H](C)O)[C@@H](C)O)C(=O)N[C@@H](Cc1ccc(O)cc1)C(=O)N[C@@H](CC(C)C)C(=O)N[C@@H](CC(=O)O)C(=O)N[C@@H](CCCCN)C(=O)N[C@@H](CCC(N)=O)C(=O)N[C@@H](C)C(=O)N[C@@H](C)C(=O)NC(C)(C)C(=O)N[C@@H](CCC(=O)O)C(=O)N[C@@H](Cc1ccccc1)C(=O)N[C@H](C(=O)N[C@@H](CC(N)=O)C(=O)N[C@@H](Cc1c[nH]c2ccccc12)C(=O)N[C@@H](CC(C)C)C(=O)N[C@@H](CC(C)C)C(=O)N[C@@H](C)C(=O)NCC(=O)NCC(=O)N1CCC[C@H]1C(=O)N[C@@H](CO)C(=O)N[C@@H](CO)C(=O)NCC(=O)N[C@@H](C)C(=O)N1CCC[C@H]1C(=O)N1CCC[C@H]1C(=O)N1CCC[C@H]1C(=O)N[C@@H](CO)C(=O)N[C@@H](CCCCN)C(N)=O)C(C)C [Compound 143]
Emax (GLP-1R [1]; Table 3): 99 to 108%
EC50 (GLP-1R [1]; [3]): 0.1 to 1 nM
Emax (GLP-1R [1]; Table 3A): 99 to 108%
EC50 (GLP-1R [1]; [4]): 0.1 to 1 nM
Emax (GIP-R; Table 3): 99 to 107%
EC50 (GIP-R; [5]): 1 to 10 nM
Emax (GIP-R; Table 3A): 99 to 107%
EC50 (GIP-R; [6]): 1 to 10 nM
EC50 (GLP-1R [2]; [7]): > 1000 nM

CC[C@H](C)[C@H](NC(=O)[C@H](CO)NC(=O)[C@H](Cc1ccc(O)cc1)NC(=O)[C@H](CC(=O)O)NC(=O)[C@H](CO)NC(=O)[C@@H](NC(=O)[C@H](Cc1ccccc1)NC(=O)[C@@H](NC(=O)CNC(=O)[C@H](CCC(=O)O)NC(=O)[C@H]1CC[C@H](C(=O)NCCN2C(=O)CSC2=O)CC1)[C@@H](C)O)[C@@H](C)O)C(=O)N[C@@H](Cc1ccc(O)cc1)C(=O)N[C@@H](CC(C)C)C(=O)N[C@@H](CC(=O)O)C(=O)N[C@@H](CCCCN)C(=O)N[C@@H](CCC(N)=O)C(=O)N[C@@H](C)C(=O)N[C@@H](C)C(=O)NC(C)(C)C(=O)N[C@@H](CCC(=O)O)C(=O)N[C@@H](Cc1ccccc1)C(=O)N[C@H](C(=O)N[C@@H](CC(N)=O)C(=O)N[C@@H](Cc1c[nH]c2ccccc12)C(=O)N[C@@H](CC(C)C)C(=O)N[C@@H](CC(C)C)C(=O)N[C@@H](C)C(=O)NCC(=O)NCC(=O)N1CCC[C@H]1C(=O)N[C@@H](CO)C(=O)N[C@@H](CO)C(=O)NCC(=O)N[C@@H](C)C(=O)N1CCC[C@H]1C(=O)N1CCC[C@H]1C(=O)N1CCC[C@H]1C(=O)N[C@@H](CO)C(=O)N[C@@H](CCCCN)C(N)=O)C(C)C [Compound 183]
Emax (GLP-1R [1]; Table 3): 95%
EC50 (GLP-1R [1]; [3]): 10 to 100 nM
Emax (GLP-1R [1]; Table 3A): 95%
EC50 (GLP-1R [1]; [4]): 10 to 100 nM
EC50 (GIP-R; [5]): > 1000 nM
EC50 (GIP-R; [6]): > 1000 nM
Emax at 1 µM (GIP-R; read-out: (Emax) GIP-R at 1 μM, Table 3, at 1 μM): 1.4%
EC50 (GLP-1R [2]; [7]): > 1000 nM

CCCCCCCCCCCCCCCC(=O)N[C@@H](CCC(=O)NCCCC[C@H](NC(=O)[C@H](CO)NC(=O)[C@@H]1CCCN1C(=O)[C@@H]1CCCN1C(=O)[C@@H]1CCCN1C(=O)[C@H](C)NC(=O)CNC(=O)[C@H](CO)NC(=O)[C@H](CO)NC(=O)[C@@H]1CCCN1C(=O)CNC(=O)CNC(=O)[C@H](C)NC(=O)[C@H](CC(C)C)NC(=O)[C@H](CC(C)C)NC(=O)[C@H](Cc1c[nH]c2ccccc12)NC(=O)[C@H](CC(N)=O)NC(=O)[C@@H](NC(=O)[C@H](Cc1ccccc1)NC(=O)[C@H](CCC(=O)O)NC(=O)C(C)(C)NC(=O)[C@H](C)NC(=O)[C@H](C)NC(=O)[C@H](CCC(N)=O)NC(=O)[C@H](CCCCN)NC(=O)[C@H](CC(=O)O)NC(=O)[C@H](CC(C)C)NC(=O)[C@H](Cc1ccc(O)cc1)NC(=O)[C@@H](NC(=O)[C@H](CO)NC(=O)[C@H](Cc1ccc(O)cc1)NC(=O)[C@H](CC(=O)O)NC(=O)[C@H](CO)NC(=O)[C@@H](NC(=O)[C@H](Cc1ccccc1)NC(=O)[C@@H](NC(=O)CNC(=O)[C@H](CCC(=O)O)NC(=O)CSCC(=O)N(C)CCN1C(=O)CSC1=O)[C@@H](C)O)[C@@H](C)O)[C@@H](C)CC)C(C)C)C(N)=O)C(=O)O [Compound 93]
EC50 (GLP-1R [1]; EC50 GLP-1R/nM, Table 3): 0.1 to 1 nM
EC50 (GLP-1R [1]; EC50 GLP-1R/nM, Table 3A): 0.1 to 1 nM
Emax (GLP-1R [1]; Table 3): 99%
Emax (GLP-1R [1]; Table 3A): 99%
EC50 (GIP-R; EC50 GIP-R/nM, Table 3): 1 to 10 nM
EC50 (GIP-R; EC50 GIP-R/nM, Table 3A): 1 to 10 nM
Emax (GIP-R; Table 3): 73%
Emax (GIP-R; Table 3A): 73%
EC50 (GLP-1R [2]): > 1000 nM
